Experimental data as given in patent US20030176314A1, “Compounds for the treatment of pain” (priority 2001, published 2003).
Like-named read-outs stand apart in the source and are kept apart here.

Assays:
rat NPFF2 receptor = target: T1, rat NPFF2 receptor (Rattus norvegicus, UniProt Q9EQD2); assay: Functional assay (agonist potency, intrinsic activity) at cloned rat NPFF2 receptor; format: cell-based; details: for rNPFF2 IA: Table 7, intrinsic activity; for Functional Activity rNPFF2 I.A. %: percent of maximum response elicited by neuropeptide FF; for EC50: read-out: Functional Activity rNPFF2 EC50
T1 construct: The full-length NPFF2 was amplified from rat spinal cord cDNA; expressed in transfected cells; host or cells: not given

rat NPFF1 receptor = target: T2, rat NPFF1 receptor (Rattus norvegicus, UniProt Q9EP86); assay: Functional assay (agonist potency, intrinsic activity) at cloned rat NPFF1 receptor; format: cell-based; details: for rNPFF1 IA: Table 7, intrinsic activity; for Functional Activity rNPFF1 I.A. %: percent of maximum response elicited by neuropeptide FF
T2 construct: expressed in transfected cells; host or cells: not given

[1] = Table 7, agonist potency, read-out: rNPFF1 EC50
[2] = agonist: IA>15%, antagonist: Ki≦1.2 mM and IA≦15% at the rat cloned NPFF receptors

T1 sequence (Q9EQD2 whole entry): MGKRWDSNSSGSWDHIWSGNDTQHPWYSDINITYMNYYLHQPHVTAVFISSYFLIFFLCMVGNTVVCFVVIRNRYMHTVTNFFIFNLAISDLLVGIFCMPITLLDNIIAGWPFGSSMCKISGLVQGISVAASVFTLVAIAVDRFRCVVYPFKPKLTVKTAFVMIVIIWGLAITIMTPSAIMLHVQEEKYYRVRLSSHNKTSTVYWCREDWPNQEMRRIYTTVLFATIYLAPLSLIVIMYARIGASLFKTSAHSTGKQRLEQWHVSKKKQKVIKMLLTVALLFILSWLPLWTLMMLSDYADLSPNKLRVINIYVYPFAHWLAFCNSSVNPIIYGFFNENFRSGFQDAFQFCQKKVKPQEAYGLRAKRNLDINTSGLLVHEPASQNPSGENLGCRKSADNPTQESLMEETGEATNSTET
T2 sequence (Q9EP86 whole entry): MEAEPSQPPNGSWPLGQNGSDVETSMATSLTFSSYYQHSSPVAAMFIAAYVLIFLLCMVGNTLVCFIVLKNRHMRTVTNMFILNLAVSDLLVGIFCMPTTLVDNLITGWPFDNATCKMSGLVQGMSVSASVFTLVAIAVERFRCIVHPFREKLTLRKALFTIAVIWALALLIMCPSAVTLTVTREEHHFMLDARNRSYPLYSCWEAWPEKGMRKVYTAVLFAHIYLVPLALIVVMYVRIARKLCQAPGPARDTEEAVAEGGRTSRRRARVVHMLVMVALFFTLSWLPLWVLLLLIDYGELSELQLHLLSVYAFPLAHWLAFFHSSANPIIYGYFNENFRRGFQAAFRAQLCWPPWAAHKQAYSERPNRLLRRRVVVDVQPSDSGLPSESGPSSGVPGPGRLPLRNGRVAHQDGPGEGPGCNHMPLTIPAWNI

Cc1ccc2nc(NC(=N)N)nc(C)c2c1 [Compound 1002A, N-(4,6-dimethyl-2-quinazolinyl)guanidine]
rNPFF2 IA (rat NPFF2 receptor): 24% NPFF

Cc1nc(NC(=N)N)nc2ccc(C(C)(C)C)cc12 [Compound 1004A, N-(6-tert-butyl-4-methyl-2-quinazolinyl)guanidine]
rNPFF2 IA (rat NPFF2 receptor): 90% NPFF
rNPFF1 IA (rat NPFF1 receptor): 36% NPFF

N=C(N)NCCC[C@H](NS(=O)(=O)c1c(F)cccc1F)C(=O)N[C@@H](Cc1ccccc1)C(N)=O [Compound 1004B]
Functional Activity rNPFF2 I.A. % (rat NPFF2 receptor; Table 4): 43%
EC50 (rat NPFF2 receptor; Table 4): > 3160 nM
Functional Activity rNPFF1 I.A. % (rat NPFF1 receptor; Table 4): 79%

N=C(N)NCCC[C@H](NS(=O)(=O)c1ccc(F)cc1)C(=O)N[C@@H](Cc1ccccc1)C(N)=O [Compound 1005B]
Functional Activity rNPFF2 I.A. % (rat NPFF2 receptor; Table 4): 46%

Cc1nc(NC(=N)N)nc2cc(OCc3ccccc3)ccc12 [Compound 1006A, N-[7-(benzyloxy)-4-methyl-2-quinazolinyl]guanidine]
rNPFF2 IA (rat NPFF2 receptor): 22% NPFF
rNPFF1 IA (rat NPFF1 receptor): 15% NPFF

Cc1ccc(S(=O)(=O)N[C@@H](CCCNC(=N)N)C(=O)N[C@@H](Cc2ccccc2)C(N)=O)cc1 [Compound 1007B]
Functional Activity rNPFF2 I.A. % (rat NPFF2 receptor; Table 4): 55%

CCCc1ccc2nc(NC(=N)N)nc(C)c2c1 [Compound 1008A, N-(4-methyl-6-propyl-2-quinazolinyl)guanidine]
rNPFF2 IA (rat NPFF2 receptor): 85% NPFF

CCCCCCCCc1ccc2nc(NC(=N)N)nc(C)c2c1 [Compound 1009A, N-(4-methyl-6-octyl-2-quinazolinyl)guanidine]
rNPFF2 IA (rat NPFF2 receptor): 22% NPFF
EC50 (rat NPFF1 receptor; [1]): 1490 nM

Cc1nc(NC(=N)N)nc2ccc(-c3ccccc3)cc12 [Compound 1010A, N-(4-methyl-6-phenyl-2-quinazolinyl)guanidine]
rNPFF2 IA (rat NPFF2 receptor): 22% NPFF

N=C(N)NCCC[C@H](NS(=O)(=O)c1ccc(Cl)cc1Cl)C(=O)N[C@@H](Cc1ccccc1)C(N)=O [Compound 1010B]
Functional Activity rNPFF2 I.A. % (rat NPFF2 receptor; Table 4): 28%

CCCCOc1ccc2nc(NC(=N)N)nc(C)c2c1 [Compound 1012A, N-(6-butoxy-4-methyl-2-quinazolinyl)guanidine]
rNPFF2 IA (rat NPFF2 receptor): 80% NPFF

Cc1nc(NC(=N)N)nc2cc(Br)ccc12 [Compound 1014A, N-(7-bromo-4-methyl-2-quinazolinyl)guanidine]
rNPFF2 IA (rat NPFF2 receptor): 47% NPFF

Cc1cc2nc(NC(=N)N)nc(C)c2cc1C [Compound 1015A, N-(4,6,7-trimethyl-2-quinazolinyl)guanidine]
rNPFF2 IA (rat NPFF2 receptor): 56% NPFF

COc1ccc(S(=O)(=O)N[C@@H](CCCNC(=N)N)C(=O)N[C@@H](Cc2ccccc2)C(N)=O)cc1OC [Compound 1015B]
Functional Activity rNPFF2 I.A. % (rat NPFF2 receptor; Table 4): 74%
Functional Activity rNPFF1 I.A. % (rat NPFF1 receptor; Table 4): 84%

COc1cc2c(C)nc(NC(=N)N)nc2cc1C [Compound 1016A, N-(6-methoxy-4,7-dimethyl-2-quinazolinyl)guanidine]
rNPFF2 IA (rat NPFF2 receptor): 74% NPFF

Cc1cc2nc(NC(=N)N)nc(C)c2cc1O [Compound 1017A, N-(6-hydroxy-4,7-dimethyl-2-quinazolinyl)guanidine]
rNPFF2 IA (rat NPFF2 receptor): 23% NPFF

Cc1nc(NC(=N)N)nc2cc(F)c(F)cc12 [Compound 1019A, N-(6,7-difluoro-4-methyl-2-quinazolinyl)guanidine]
rNPFF2 IA (rat NPFF2 receptor): 31% NPFF

N=C(N)NCCC[C@H](NS(=O)(=O)c1c(Cl)cccc1Cl)C(=O)N[C@@H](Cc1ccccc1)C(N)=O [Compound 1019B]
classification as agonist or antagonist at the NPFF2 receptor (rat NPFF2 receptor; [2]): agonists
classification as agonist or antagonist at the NPFF1 receptor (rat NPFF1 receptor; [2]): agonists

Cc1nc(NC(=N)N)nc2cc(C(C)C)ccc12 [Compound 1021A, N-(7-isopropyl-4-methyl-2-quinazolinyl)guanidine]
rNPFF2 IA (rat NPFF2 receptor): 76% NPFF

N=C(N)NCCC[C@H](NS(=O)(=O)c1ccc(Cl)c(Cl)c1)C(=O)N[C@@H](Cc1ccccc1)C(N)=O [Compound 1022B]
Functional Activity rNPFF2 I.A. % (rat NPFF2 receptor; Table 4): 34%
EC50 (rat NPFF2 receptor; Table 4): > 3160 nM
Functional Activity rNPFF1 I.A. % (rat NPFF1 receptor; Table 4): 86%
EC50 (rat NPFF1 receptor; Table 4, read-out: Functional Activity rNPFF1 EC50): 1860 nM

Cc1nc(NC(=N)N)nc2cc(OC(C)C)ccc12 [Compound 1025A, N-[4-methyl-7-(isopropoxy)-2-quinazolinyl]guanidine]
rNPFF2 IA (rat NPFF2 receptor): 27% NPFF

Cc1nc(NC(=N)N)nc2ccc(Br)cc12 [Compound 1026A, N-(6-bromo-4-methyl-2-quinazolinyl)guanidine]
rNPFF2 IA (rat NPFF2 receptor): 19% NPFF

N=C(N)NCCC[C@H](NS(=O)(=O)c1ccccc1[N+](=O)[O-])C(=O)N[C@@H](Cc1ccccc1)C(N)=O [Compound 1026B]
Functional Activity rNPFF2 I.A. % (rat NPFF2 receptor; Table 4): 59%
Functional Activity rNPFF1 I.A. % (rat NPFF1 receptor; Table 4): 79%

N#Cc1ccccc1S(=O)(=O)N[C@@H](CCCNC(=N)N)C(=O)N[C@@H](Cc1ccccc1)C(N)=O [Compound 1027B]
Functional Activity rNPFF2 I.A. % (rat NPFF2 receptor; Table 4): 48%
Functional Activity rNPFF1 I.A. % (rat NPFF1 receptor; Table 4): 52%

Cc1nc(NC(=N)N)nc2ccc(OCc3ccccc3)cc12 [Compound 1028A, N-[6-(benzyloxy)-4-methyl-2-quinazolinyl]guanidine]
rNPFF2 IA (rat NPFF2 receptor): 79% NPFF

N=C(N)NCCC[C@@H](NS(=O)(=O)c1ccc(F)cc1)C(=O)N[C@@H](Cc1ccccc1)C(N)=O [Compound 1028B]
Functional Activity rNPFF2 I.A. % (rat NPFF2 receptor; Table 5): 62%
Functional Activity rNPFF1 I.A. % (rat NPFF1 receptor; Table 5): 46%

Cc1nc(NC(=N)N)nc2ccc(C3CCCCC3)cc12 [Compound 1029A, N-(6-cyclohexyl-4-methyl-2-quinazolinyl)guanidine]
rNPFF2 IA (rat NPFF2 receptor): 31% NPFF
rNPFF1 IA (rat NPFF1 receptor): 28% NPFF

Cc1nc(NC(=N)N)nc2ccc(OC(F)(F)F)cc12 [Compound 1030A, N-[4-methyl-6-(trifluoromethoxy)-2-quinazolinyl]guanidine]
rNPFF2 IA (rat NPFF2 receptor): 85% NPFF

CCCCCOc1ccc2nc(NC(=N)N)nc(C)c2c1 [Compound 1031A, N-[4-methyl-6-(pentyloxy)-2-quinazolinyl]guanidine]
rNPFF2 IA (rat NPFF2 receptor): 66% NPFF

Cc1nc(NC(=N)N)nc2ccc(Oc3ccccc3)cc12 [Compound 1032A, N-(4-methyl-6-phenoxy-2-quinazolinyl)guanidine]
rNPFF2 IA (rat NPFF2 receptor): 93% NPFF
rNPFF1 IA (rat NPFF1 receptor): 31% NPFF

Cc1ccc(Oc2ccc3nc(NC(=N)N)nc(C)c3c2)cc1 [Compound 1033A, N-[4-methyl-6-(4-methylphenoxy)-2-quinazolinyl]guanidine]
rNPFF2 IA (rat NPFF2 receptor): 51% NPFF

Cc1nc(NC(=N)N)nc2ccc(CCCC(C)O)cc12 (stereo not shown) [Compound 1034A, N-(6-[1-(4-hydroxyl-pentyl)]-4-methyl-2-quinazolino)guanidine]
rNPFF2 IA (rat NPFF2 receptor): 101% NPFF
rNPFF1 IA (rat NPFF1 receptor): 63% NPFF

Cc1nc(NC(=N)N)nc2cc(C(C)O)ccc12 (stereo not shown) [Compound 1035A, N-[7-(1-hydroxyethyl)-4-methyl-2-quinazolinyl]guanidine]
rNPFF2 IA (rat NPFF2 receptor): 52% NPFF

Cc1nc(NC(=N)N)nc2cc(OC(F)(F)F)ccc12 [Compound 1036A, N-[4-methyl-7-(trifluoromethoxy)-2-quinazolinyl]guanidine]
rNPFF2 IA (rat NPFF2 receptor): 78% NPFF

Cc1nc(NC(=N)N)nc2cc3c(cc12)C=CCC3 [Compound 1037A, N-(4-methyl-8,9-dihydrobenzo[g]quinazolin-2-yl)guanidine]
rNPFF2 IA (rat NPFF2 receptor): 71% NPFF

Cc1nc(NC(=N)N)nc2cc3ccoc3cc12 [Compound 1039A, N-(4-methylfuro[2,3-g]quinazolin-2-yl)guanidine]
rNPFF2 IA (rat NPFF2 receptor): 78% NPFF
EC50 (rat NPFF1 receptor; [1]): > 10000 nM

N=C(N)NCCC[C@H](NS(=O)(=O)c1ccccc1Br)C(=O)N[C@@H](Cc1ccccc1)C(N)=O [Compound 2001B]
Functional Activity rNPFF2 I.A. % (rat NPFF2 receptor; Table 4): 9%
Functional Activity rNPFF1 I.A. % (rat NPFF1 receptor; Table 4): 81%

N=C(N)NCCC[C@H](NS(=O)(=O)c1ccc([N+](=O)[O-])cc1[N+](=O)[O-])C(=O)N[C@@H](Cc1ccccc1)C(N)=O [Compound 2002B]
Functional Activity rNPFF2 I.A. % (rat NPFF2 receptor; Table 4): 5%
Functional Activity rNPFF1 I.A. % (rat NPFF1 receptor; Table 4): 34%

Cc1nc(NC(=N)N)nc2ccc(Cc3ccccc3)cc12 [Compound 2003A, N-(6-benzyl-4-methyl-2-quinazolinyl)guanidine]
rNPFF2 IA (rat NPFF2 receptor): 89% NPFF
rNPFF1 IA (rat NPFF1 receptor): 56% NPFF

CCCCc1ccc2nc(NC(=N)N)nc(C)c2c1 [Compound 2004A, N-(6-butyl-4-methyl-2-quinazolinyl)guanidine]
rNPFF2 IA (rat NPFF2 receptor): 101% NPFF
rNPFF1 IA (rat NPFF1 receptor): 40% NPFF

CCCCCCc1ccc2nc(NC(=N)N)nc(C)c2c1 [Compound 2005A, N-(6-hexyl-4-methyl-2-quinazolinyl)guanidine]
rNPFF2 IA (rat NPFF2 receptor): 81% NPFF
rNPFF1 IA (rat NPFF1 receptor): 56% NPFF

CCCCCCCc1ccc2nc(NC(=N)N)nc(C)c2c1 [Compound 2006A, N-(6-heptyl-4-methyl-2-quinazolinyl)guanidine]
rNPFF2 IA (rat NPFF2 receptor): 47% NPFF
rNPFF1 IA (rat NPFF1 receptor): 38% NPFF

Cc1ccc2nc(NC(=N)N)cc(C)c2c1 [Compound 4001A, N-(4,6-dimethyl-2-quinolinyl)guanidine]
rNPFF2 IA (rat NPFF2 receptor): 68% NPFF

Cc1cc(NC(=N)N)nc2ccc(-c3ccccc3)cc12 [Compound 4003A, N-(4-methyl-6-phenyl-2-quinolinyl)guanidine]
rNPFF2 IA (rat NPFF2 receptor): 26% NPFF

COc1ccc2nc(NC(=N)N)cc(C)c2c1 [Compound 4004A, N-(6-methoxy-4-methyl-2-quinolinyl)guanidine]
rNPFF2 IA (rat NPFF2 receptor): 65% NPFF

Cc1cc(NC(=N)N)nc2cc(F)ccc12 [Compound 4007A, N-(7-fluoro-4-methyl-2-quinolinyl)guanidine]
rNPFF2 IA (rat NPFF2 receptor): 17% NPFF

Cc1cc(C)c2c(C)cc(NC(=N)N)nc2c1 [Compound 4008A, N-(4,5,7-trimethyl-2-quinolinyl)guanidine]
rNPFF2 IA (rat NPFF2 receptor): 65% NPFF

Cc1cc(NC(=N)N)nc2ccc3ccccc3c12 [Compound 4009A, N-(1-methylbenzo[f]quinolin-3-yl)guanidine]
rNPFF2 IA (rat NPFF2 receptor): 70% NPFF

CCCCc1ccc2nc(NC(=N)N)cc(C)c2c1 [Compound 5001A, N-(6-butyl-4-methyl-2-quinolinyl)guanidine]
rNPFF2 IA (rat NPFF2 receptor): 82% NPFF
rNPFF1 IA (rat NPFF1 receptor): 28% NPFF
